Reference: patent US20190350898A1, “METHODS AND COMPOSITIONS FOR TREATMENT OF ALZHEIMER'S DISEASE” (Neurotrope Bioscience, Inc., priority 2018, published 2019)
Where “and” joins values, the source holds several entries; their conditions need not be identical. Equal entries are not always repeated.

System: patients with advanced Alzheimer's disease
Experiment: Severe Impairment Battery (SIB) change from baseline, double-blind randomized placebo-controlled trial
Type: in vivo, human
Conditions: for SIB Total change from baseline, LS Mean / SIB Total, Difference vs. Placebo / SIB Total change from baseline, LS Mean (SE): Bryostatin 20 μg; for SIB Delta at Ave of Week 13 and 15, Mean / SIB Delta at Week 5, Mean / SIB Delta at Week 9, Mean / SIB Delta at Week 13, Mean: Low dose (20), unadjusted; for Combined treatment effect, mean improvement in SIB over placebo: bryostatin 20 μg, post-hoc MMRM; for SIB Total LS Mean difference between 20 μg group and placebo: week 13
Description: In a double-blind, randomized, placebo-controlled trial, bryostatin was administered by intravenous infusion (˜45 minutes) to patients with advanced Alzheimer's disease for 12 weeks at doses of 20 or 40 μg. Randomization was stratified at baseline by severe (MMSE-2, 4-9) and moderate (MMSE-2, 10-15) dementia, wherein MMSE-2 refers to Mini-Mental State Examination, version 2. The MMSE or Folstein test is a 30-point questionnaire that is used extensively in clinical and research settings to measure cognitive impairment. Low scores indicate greater impairment. Version 2 of the MMSE was published in 2010, expanding the original questionnaire's usefulness in populations with milder forms of cognitive impairment. […] Importantly, this cognitive improvement persisted and increased 30 days after all bryostatin dosing had been completed.
Adults aged 55-85 with cognitive deficits present for at least 2 years, MMSE-2 of 4-15, inclusive, and a diagnosis of Alzheimer's dementia were randomly assigned to receive blinded intravenous infusions of bryostatin 24 μg or matching placebo at weeks 0 and 1. The 24 μg and 48 μg doses during the first two weeks of the 20 and 40 μg protocols respectively were considered to be “loading” doses thought to be beneficial from prior experience with Compassionate Use trial patients. Nelson et al., Alzheimers Dis. 2017 58: 521-535. In one arm, the two 24 μg doses were followed by 20 μg doses at weeks 5, 7, 9 and 11 with the Severe Impairment Battery (SIB) measured at baseline and weeks 5, 9, 13, and 15. In a second arm, the two 48 μg doses at weeks 0 and 1 were followed by 40 μg doses at weeks 5, 7, 9, and 11 with the SIB measured at baseline and weeks 5, 9, 13, and 15. The subjects were stratified by MMSE-2 in two strata: Stratum 1 (4-9) and Stratum 2 (10-15). The first primary endpoint was safety and tolerability, assessed by treatment emergent adverse events (TEAEs) with a sample size of 150 subjects randomized 1:1:1. Although efficacy was the secondary measure, the primary efficacy endpoint was SIB improvement at week 13 evaluated using a mixed model for repeated measures. A secondary efficacy endpoint was ADCS-ADL Sev. The primary safety population included all subjects who received at least 1 dose of study drug, and efficacy was evaluated in a modified intent to treat (mITT) population that received at least 1 dose of study drug and had at least one treatment evaluation. Efficacy was evaluated both as a primary end-point in the modified intent-to-treat (mITT) population and also as a primary end point in a Completers population that included all patients that completed the entire protocols as described above.
The SIB efficacy measurement at 30 days (week 15) post dosing—after all dosing had been completed (last dose administered at week 11)—was a pre-specified exploratory endpoint. Week 15 results were only included for subjects who were not re-randomized. The mixed model assumes missing at random, but order of enrollment in the trial was not random. Since order of enrollment was not random, the assumption of missing at random is not met. For this reason, only including week 15 for those who were not re-randomized is an appropriate way to estimate week 15 results, but not an appropriate way to estimate results at the earlier visits. For this reason, estimates up through week 13 are from a mixed model that only included data through week 13 and the week 15 estimates are from a separate model. Results were generated using a mixed model with repeated measures predicting change from baseline in SIB Total Score as the response variable and using baseline score, baseline MMSE strata, treatment, visit (categorical), and visit (treatment) as predictors. […]

[1] = Week 13, Completer, With Memantine
[2] = Week 13, Completer, Without Memantine
[3] = Week 13, FAS (mITT), With Memantine
[4] = Week 13, FAS (mITT), Without Memantine
[5] = Week 15 (30 days post dosing), Completer, MMRM
[6] = Week 15 (30 days post dosing), FAS, MMRM
[7] = Week 15, Completer, With Memantine
[8] = Week 15, Completer, Without Memantine
[9] = Week 15, FAS (mITT), Without Memantine
[10] = Memantine Exposed Patients, FAS
[11] = Memantine Treatment-Naïve Patients, FAS

## CCC/C=C/C=C/C(=O)O[C@H]1/C(=C/C(=O)OC)C[C@H]2C[C@H]([C@@H](C)O)OC(=O)C[C@H](O)C[C@@H]3C[C@H](OC(C)=O)C(C)(C)[C@](O)(C[C@@H]4C/C(=C/C(=O)OC)C[C@H](/C=C/C(C)(C)[C@]1(O)O2)O4)O3 [Bryostatin, bryostatin-1]
[1]
  SIB Total change from baseline, LS Mean: −0.39
  SIB Total, Difference vs. Placebo: 0.56
[2]
  SIB Total change from baseline, LS Mean: 4.22
  SIB Total, Difference vs. Placebo: 5.53
[3]
  SIB Total change from baseline, LS Mean: −0.60
  SIB Total, Difference vs. Placebo: −0.14
[4]
  SIB Total change from baseline, LS Mean: 3.83 points
  SIB Total, Difference vs. Placebo: 5.11
Week 13, FAS, MMRM
  SIB Total change from baseline, LS Mean (SE): 1.16 (1.150)
  SIB Total, Difference vs. Placebo: 1.94
[5]
  SIB Total change from baseline, LS Mean (SE): 1.96 (1.255)
  SIB Total, Difference vs. Placebo: 4.09
Week 15 (30 days post dosing), Completer, MMRM, listed as bryostatin
  SIB Total, Difference vs. Placebo: 4.0 and 4.09
[6]
  SIB Total change from baseline, LS Mean (SE): 1.77 (1.342) points
  SIB Total, Difference vs. Placebo: 3.59
Week 15 (30 days post dosing), FAS, MMRM, listed as bryostatin
  SIB Total change from baseline, LS Mean (SE): 1.77 points
[7]
  SIB Total change from baseline, LS Mean: −0.71
  SIB Total, Difference vs. Placebo: 1.45
[8]
  SIB Total change from baseline, LS Mean: 6.24
  SIB Total, Difference vs. Placebo: 6.36
[9]
  SIB Total change from baseline, LS Mean: 5.88 points
  SIB Total, Difference vs. Placebo: 5.93
Week 15, FAS, With Memantine
  SIB Total change from baseline, LS Mean: −0.83
  SIB Total, Difference vs. Placebo: 0.79
Completers, 20 μg group 'without memantine' as printed
  13-week LS Mean change in SIB (so in the source): 0.56
[10]
  SIB Delta at Ave of Week 13 and 15, Mean: −0.727
  SIB Delta at Week 5, Mean: 0.077
  SIB Delta at Week 9, Mean: −0.087
  SIB Delta at Week 13, Mean: −0.545
[11]
  SIB Delta at Ave of Week 13 and 15, Mean: 5.406
  SIB Delta at Week 5, Mean: 3.444
  SIB Delta at Week 9, Mean: 3.467
  SIB Delta at Week 13, Mean: 4.500
Memantine Exposed, adjusted for Base SIB, MMSE-2
  Treatment, adjusted slope (ANCOVA, SIB at 13/15 weeks from baseline, 20 μg Bryostatin vs placebo): −0.620 (p = 0.815)
Memantine Exposed, adjusted for Baseline SIB
  Treatment, adjusted slope (ANCOVA, SIB at 13/15 weeks from baseline, 20 μg Bryostatin vs placebo): −0.531 (p = 0.843)
Memantine Naïve, adjusted for Base SIB, MMSE-2
  Treatment, adjusted slope (ANCOVA, SIB at 13/15 weeks from baseline, 20 μg Bryostatin vs placebo): 5.923 (p = 0.002)
Memantine Naïve, adjusted for Baseline SIB
  Treatment, adjusted slope (ANCOVA, SIB at 13/15 weeks from baseline, 20 μg Bryostatin vs placebo): 5.426 (p = 0.010)
Weeks 5, 9, 13, and 15, 30-Day Follow-up population
  Combined treatment effect, mean improvement in SIB over placebo: 4.721
Weeks 5, 9, and 13, Completer population
  Combined treatment effect, mean improvement in SIB over placebo: 3.089
Weeks 5, 9, and 13, FAS population
  Combined treatment effect, mean improvement in SIB over placebo: 2.146
AChEI non-users
  SIB Total LS Mean difference between 20 μg group and placebo: 2.00
AChEI users
  SIB Total LS Mean difference between 20 μg group and placebo: 2.09
